Laboratory results reported in ChEMBL document CHEMBL5537185, “Discovery of the First-in-Class RORγ Covalent Inhibitors for Treatment of Castration-Resistant Prostate Cancer” (J Med Chem, 2024).

What was measured:
[1] = target: T1, Nuclear receptor ROR-gamma (Homo sapiens, UniProt P51449); assay: Inhibition of Gal4-fused RORgamma LBD (unknown origin) expressed in HEK293T cells incubated for 48 hrs by luciferase based assay; format: cell-based
T1 sequence (P51449 whole entry): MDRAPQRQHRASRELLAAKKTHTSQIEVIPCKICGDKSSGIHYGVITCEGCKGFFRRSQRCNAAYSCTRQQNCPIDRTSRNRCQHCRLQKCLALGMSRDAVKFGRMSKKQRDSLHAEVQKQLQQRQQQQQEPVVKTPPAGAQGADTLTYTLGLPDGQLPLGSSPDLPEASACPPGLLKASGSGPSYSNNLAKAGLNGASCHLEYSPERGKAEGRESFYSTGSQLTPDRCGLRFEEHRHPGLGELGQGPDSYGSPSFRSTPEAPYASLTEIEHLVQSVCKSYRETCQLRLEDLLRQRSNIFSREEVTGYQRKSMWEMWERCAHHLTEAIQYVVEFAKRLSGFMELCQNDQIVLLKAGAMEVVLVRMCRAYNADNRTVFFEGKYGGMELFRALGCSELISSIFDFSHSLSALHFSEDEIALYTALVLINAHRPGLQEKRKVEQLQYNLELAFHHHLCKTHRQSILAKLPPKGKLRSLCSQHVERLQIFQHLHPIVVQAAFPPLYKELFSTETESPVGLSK

LNCaP C4-2B = assay: Antiproliferative activity against human LNCaP C4-2B cells incubated for 4 days by CCK8 assay; details: 96 h
CWR22R [2] = assay: Antiproliferative activity against human 22Rv1 cells incubated for 4 days by CCK8 assay; details: 22Rv1, 96 h
LNCaP = assay: Antiproliferative activity against human LNCaP cells incubated for 4 days by CCK8 assay; details: 96 h
CWR22R [3] = assay: Antitumor activity against human 22Rv1 cells xenografted in NOD/SCID mouse assessed as tumor growth inhibition at 5 mg/kg, ip administered five times a week for 2 weeks and measured two times per week; format: functional; details: 22Rv1, 336 h, read-out: TGI
[4] = Metabolic stability in mouse liver microsomes assessed as half life at 0.1 uM preincubated for 10 mins followed by NADPH addition and measured upto 60 mins by LC-MS/MS analysis; format: ADME, Microsome; details: time < 70 min

`C=CC(=O)Nc1ccccc1-c1ccc(NC(=O)Cc2ccc(S(=O)(=O)CC)cc2)cn1` gave an IC50 [1] of 6190 nM.
Compound `CCS(=O)(=O)c1ccc(CC(=O)Nc2ccc(-c3ccccc3NC(=O)CCl)c(C)c2)cc1` has an IC50 [1] of 2000 nM.
Work on `C=C(C)C(=O)Nc1ccccc1-c1ccc(NC(=O)Cc2ccc(S(=O)(=O)CC)cc2)cc1C` yielded an IC50 [1] of 1120 nM.
For `CCC(=O)Nc1ccccc1-c1ccc(NC(=O)Cc2ccc(S(=O)(=O)CC)cc2)cc1Cl`, the IC50 (LNCaP C4-2B) was > 10000 nM, the IC50 (CWR22R [2]) was > 10000 nM and the IC50 (LNCaP) was > 10000 nM.
With `C=CC(=O)Nc1ccccc1-c1ccc(NC(=O)Cc2ccc(S(=O)(=O)CC)cc2)cc1C(F)(F)F` the IC50 (LNCaP C4-2B) was 1100 nM, the IC50 (CWR22R [2]) was 2560 nM and the IC50 [1] was 2170 nM. It also gave an IC50 (LNCaP) of 1770 nM.
`CCS(=O)(=O)c1ccc(CC(=O)Nc2cc(Cl)c(-c3ccccc3OC(F)(F)F)c(Cl)c2)cc1` showed an inhibition in vivo at 5 mg/kg (CWR22R [3]) of 31.1%.
`C=CC(=O)Nc1ccccc1-c1ccc(NC(=O)c2ccc(S(C)(=O)=O)cn2)cc1C` showed an IC50 [1] of 5440 nM.
Work on `C=CC(=O)Nc1ccccc1-c1ccc(NC(=O)Cc2ccc(C#N)cc2)cc1C` yielded an IC50 [1] of 2320 nM.
`C=CC(=O)Nc1ccccc1-c1ccc(NC(=O)Cc2ccc(S(=O)(=O)CC)cc2)cc1` gave an IC50 [1] of 4080 nM.
Compound `CCC(=O)Nc1ccccc1-c1ccc(NC(=O)Cc2ccc(S(=O)(=O)CC)cc2)cc1C` has an IC50 [1] of 2980 nM.
For `C=CC(=O)Nc1ccccc1-c1ccc(NC(=O)Cc2ccc(S(=O)(=O)CC)cc2)cc1F`, the half-life at 0.1 µM [4] was 8.17 min, the IC50 (LNCaP C4-2B) was 730 nM and the IC50 (CWR22R [2]) was 1440 nM. For the same compound, the IC50 [1] was 1100 nM and the IC50 (LNCaP) was 530 nM.
For `C=CC(=O)Nc1ccccc1-c1ccc(NC(=O)c2cnc(C)nc2)cc1C`, the IC50 [1] was 2580 nM.
